Test results: publication PMC5218480 (PLoS ONE, 2017)

System: MV-4-11 cells
Assay: Gene expression microarray analysis (Affymetrix PrimeView) and GSEA
Format: cell-based, human
Parameters: RFU PODN (11730768_x_at) / Fold change /veh PODN (11730768_x_at) / RFU LINC00158 (11744669_a_at) / Fold change /veh LINC00158 (11744669_a_at) / RFU DUSP10 (11751237_a_at) / Fold change /veh DUSP10 (11751237_a_at) / RFU ID3 (11757404_x_at) / Fold change /veh ID3 (11757404_x_at) / RFU PLEKHG5 (11737974_s_at) / Fold change /veh PLEKHG5 (11737974_s_at) / RFU LRRC4B (11730491_at) / Fold change /veh LRRC4B (11730491_at) / RFU GIMAP4 (11747438_a_at) / Fold change /veh GIMAP4 (11747438_a_at) / RFU KRT8 (11758183_x_at) / Fold change /veh KRT8 (11758183_x_at) / RFU CNN1 (11734310_a_at) / Fold change /veh CNN1 (11734310_a_at) / RFU VPS37D (11726825_at) / Fold change /veh VPS37D (11726825_at) / RFU C10orf10 (11716522_x_at) / Fold change /veh C10orf10 (11716522_x_at) / RFU KIR2DL2 /// KIR2DL4 /// KIR2DL5A /// KIR2DL5B /// KIR2DS1 /// KIR2DS2 /// KIR2DS3 /// KIR2DS4 /// KIR3DL3 /// KIR3DL3 /// KIR3DS1 (11738374_at) / Fold change /veh KIR2DL2 /// KIR2DL4 /// KIR2DL5A /// KIR2DL5B /// KIR2DS1 /// KIR2DS2 /// KIR2DS3 /// KIR2DS4 /// KIR3DL3 /// KIR3DL3 /// KIR3DS1 (11738374_at) / RFU C1QL1 (11718748_at) / Fold change /veh C1QL1 (11718748_at) / RFU TMPRSS4 (11747572_a_at) / Fold change /veh TMPRSS4 (11747572_a_at) / RFU HAMP (11756126_x_at) / Fold change /veh HAMP (11756126_x_at) / RFU RNFT2 (11725882_a_at) / Fold change /veh RNFT2 (11725882_a_at) / RFU NR4A2 (11747474_a_at) / Fold change /veh NR4A2 (11747474_a_at) / RFU ABCC12 (11746883_a_at) / Fold change /veh ABCC12 (11746883_a_at) / RFU TMEM136 (11760407_x_at) / Fold change /veh TMEM136 (11760407_x_at) / RFU CLDN22 /// WWC2 (11732394_at) / Fold change /veh CLDN22 /// WWC2 (11732394_at) / RFU HLA-DPB1 (11760878_x_at) / Fold change /veh HLA-DPB1 (11760878_x_at) / RFU SPINT1 (11716480_a_at) / Fold change /veh SPINT1 (11716480_a_at) / RFU GAP43 (11754022_s_at) / Fold change /veh GAP43 (11754022_s_at) / RFU A4GNT (11735810_at) / Fold change /veh A4GNT (11735810_at) / RFU PRB3 (11715151_x_at) / Fold change /veh PRB3 (11715151_x_at) / RFU TUBB4B (11761932_at) / Fold change /veh TUBB4B (11761932_at) / RFU CAPN14 (11732068_a_at) / Fold change /veh CAPN14 (11732068_a_at) / RFU TMCC2 (11721928_a_at) / Fold change /veh TMCC2 (11721928_a_at) / RFU IRGQ (11745062_a_at) / Fold change /veh IRGQ (11745062_a_at) / RFU FAM174B (11720279_a_at) / Fold change /veh FAM174B (11720279_a_at) / RFU TMPRSS4 (11748680_a_at) / Fold change /veh TMPRSS4 (11748680_a_at) / RFU FAM212B (11763350_a_at) / Fold change /veh FAM212B (11763350_a_at) / RFU PLEKHG5 (11743358_a_at) / Fold change /veh PLEKHG5 (11743358_a_at) / RFU ZSCAN30 (11745921_a_at) / Fold change /veh ZSCAN30 (11745921_a_at) / RFU CMKLR1 (11741424_a_at) / Fold change /veh CMKLR1 (11741424_a_at) / RFU LOC101060620 /// MAPK8IP1 (11723275_at) / Fold change /veh LOC101060620 /// MAPK8IP1 (11723275_at) / RFU SPTSSB (11747773_x_at) / Fold change /veh SPTSSB (11747773_x_at) / RFU PRSS12 (11739890_at) / Fold change /veh PRSS12 (11739890_at) / RFU BIN1 (11741810_x_at) / Fold change /veh BIN1 (11741810_x_at) / RFU WNT11 (11732464_a_at) / Fold change /veh WNT11 (11732464_a_at) / RFU C10orf10 (11716521_a_at) / Fold change /veh C10orf10 (11716521_a_at) / RFU C5orf56 (11738089_at) / Fold change /veh C5orf56 (11738089_at) / RFU CYB561 (11721691_x_at) / Fold change /veh CYB561 (11721691_x_at) / RFU ANKRD19P (11752326_a_at) / Fold change /veh ANKRD19P (11752326_a_at) / RFU OR2T12 /// OR2T33 /// OR2T8 (11738714_s_at) / Fold change /veh OR2T12 /// OR2T33 /// OR2T8 (11738714_s_at) / RFU VCAN (11748164_a_at) / Fold change /veh VCAN (11748164_a_at) / RFU JSRP1 (11732532_at) / Fold change /veh JSRP1 (11732532_at) / RFU KRTAP10-11 (11738290_x_at) / Fold change /veh KRTAP10-11 (11738290_x_at) / RFU MYO3A (11730013_a_at) / Fold change /veh MYO3A (11730013_a_at) / RFU EBF3 (11725865_a_at) / Fold change /veh EBF3 (11725865_a_at) / RFU CAMK2N1 (11719241_x_at) / Fold change /veh CAMK2N1 (11719241_x_at) / RFU C5orf56 (11738088_a_at) / Fold change /veh C5orf56 (11738088_a_at) / RFU OLFML3 (11715873_a_at) / Fold change /veh OLFML3 (11715873_a_at) / RFU LOC100653217 /// NTM (11731650_a_at) / Fold change /veh LOC100653217 /// NTM (11731650_a_at) / RFU MAPK11 (11762145_a_at) / Fold change /veh MAPK11 (11762145_a_at) / RFU FIZ1 (11724087_x_at) / Fold change /veh FIZ1 (11724087_x_at) / RFU OASL (11726364_x_at) / Fold change /veh OASL (11726364_x_at) / RFU SOX15 (11748057_x_at) / Fold change /veh SOX15 (11748057_x_at) / RFU CD79A (11719716_a_at) / Fold change /veh CD79A (11719716_a_at) / RFU HIST1H1D (11736915_at) / Fold change /veh HIST1H1D (11736915_at) / RFU CASKIN2 (11723855_a_at) / Fold change /veh CASKIN2 (11723855_a_at) / RFU LOC730098 (11760151_x_at) / Fold change /veh LOC730098 (11760151_x_at) / RFU OR4N2 (11742367_at) / Fold change /veh OR4N2 (11742367_at) / RFU PRRT2 (11749266_a_at) / Fold change /veh PRRT2 (11749266_a_at) / RFU SNX32 (11753110_a_at) / Fold change /veh SNX32 (11753110_a_at) / RFU CDHR5 (11726645_a_at) / Fold change /veh CDHR5 (11726645_a_at) / RFU RCAN1 (11760418_a_at) / Fold change /veh RCAN1 (11760418_a_at) / RFU FAM167A (11723789_a_at) / Fold change /veh FAM167A (11723789_a_at) / RFU FAM26E (11764081_at) / Fold change /veh FAM26E (11764081_at) / RFU ISYNA1 (11749810_s_at) / Fold change /veh ISYNA1 (11749810_s_at) / RFU ACY1 (11761880_at) / Fold change /veh ACY1 (11761880_at) / RFU 11764098_at / Fold change /veh 11764098_at / RFU SAMD14 (11745864_x_at) / Fold change /veh SAMD14 (11745864_x_at) / RFU NPB (11741838_a_at) / Fold change /veh NPB (11741838_a_at) / RFU TMPRSS6 (11731388_a_at) / Fold change /veh TMPRSS6 (11731388_a_at) / RFU KRTAP10-2 (11738614_at) / Fold change /veh KRTAP10-2 (11738614_at) / RFU ARHGAP8 /// PRR5-ARHGAP8 (11727945_x_at) / Fold change /veh ARHGAP8 /// PRR5-ARHGAP8 (11727945_x_at) / RFU KRTAP5-7 /// NADSYN1 (11734609_at) / Fold change /veh KRTAP5-7 /// NADSYN1 (11734609_at) / RFU RASL12 (11751679_a_at) / Fold change /veh RASL12 (11751679_a_at) / RFU CDKN2B (11736163_a_at) / Fold change /veh CDKN2B (11736163_a_at) / RFU PRF1 (11729649_at) / Fold change /veh PRF1 (11729649_at) / RFU, ZNF638 /// ZNF638-IT1 / Fold change vs veh, ZNF638 /// ZNF638-IT1 / RFU, PANK3 / Fold change vs veh, PANK3 / RFU, SH3YL1 / Fold change vs veh, SH3YL1 / RFU, ZEB2 / Fold change vs veh, ZEB2 / RFU, NRIP1 / Fold change vs veh, NRIP1 / RFU, PTTG1IP / Fold change vs veh, PTTG1IP / RFU, CAPN2 / Fold change vs veh, CAPN2 / RFU, MED14 / Fold change vs veh, MED14 / RFU, SNORA58 / Fold change vs veh, SNORA58 / RFU, C1orf63 / Fold change vs veh, C1orf63 / RFU, LRRFIP1 / Fold change vs veh, LRRFIP1 / RFU, NDUFAF7 / Fold change vs veh, NDUFAF7 / RFU, SLC12A2 / Fold change vs veh, SLC12A2 / RFU, IBTK / Fold change vs veh, IBTK / RFU, ESF1 / Fold change vs veh, ESF1 / Fold change vs veh, TMEM50B / RFU, TAOK1 / Fold change vs veh, TAOK1 / RFU, ACBD3 / Fold change vs veh, ACBD3 / RFU, TMA16 / Fold change vs veh, TMA16 / RFU, RWDD3 / Fold change vs veh, RWDD3 / RFU, BCAT1 / Fold change vs veh, BCAT1 / RFU, EDEM3 / Fold change vs veh, EDEM3 / RFU, TMEM33 / Fold change vs veh, TMEM33 / RFU, WDR75 / Fold change vs veh, WDR75 / RFU, AHCTF1 / Fold change vs veh, AHCTF1 / RFU, TFRC / Fold change vs veh, TFRC / RFU, ZDHHC17 / Fold change vs veh, ZDHHC17 / RFU, NOM1 / Fold change vs veh, NOM1 / RFU, ARL8B / Fold change vs veh, ARL8B / RFU, ZBTB11 / Fold change vs veh, ZBTB11 / RFU, TAMM41 / Fold change vs veh, TAMM41 / RFU, KIAA1704 /// LOC100996395 / Fold change vs veh, KIAA1704 /// LOC100996395 / RFU, ING1 / Fold change vs veh, ING1 / RFU, TRMT61B / Fold change vs veh, TRMT61B / RFU, FUBP3 / Fold change vs veh, FUBP3 / RFU, TP53 / Fold change vs veh, TP53 / RFU, TNKS2 / Fold change vs veh, TNKS2 / RFU, ZFP14 / Fold change vs veh, ZFP14 / RFU, ACTR2 / Fold change vs veh, ACTR2 / RFU, PPP3R1 / Fold change vs veh, PPP3R1 / RFU, PIK3R1 / Fold change vs veh, PIK3R1 / RFU, HNRNPA1 / Fold change vs veh, HNRNPA1 / RFU, RNF170 / Fold change vs veh, RNF170 / RFU, ZNF28 / Fold change vs veh, ZNF28 / RFU, RNGTT / Fold change vs veh, RNGTT / RFU, OGT / Fold change vs veh, OGT / RFU, BRD1 / Fold change vs veh, BRD1 / RFU, MARS / Fold change vs veh, MARS / RFU, ZNF655 / Fold change vs veh, ZNF655 / RFU, FAHD1 / Fold change vs veh, FAHD1 / RFU, BDP1 / Fold change vs veh, BDP1 / RFU, LRRCC1 / Fold change vs veh, LRRCC1 / RFU, ARID1A / Fold change vs veh, ARID1A / RFU, ZNF146 / Fold change vs veh, ZNF146 / RFU, ZNF330 / Fold change vs veh, ZNF330 / RFU, GPN3 / Fold change vs veh, GPN3 / RFU, C9orf123 / Fold change vs veh, C9orf123 / RFU, N4BP2L2 / Fold change vs veh, N4BP2L2 / RFU, ARFIP1 / Fold change vs veh, ARFIP1 / RFU, FAM179B / Fold change vs veh, FAM179B / RFU, BCL10 / Fold change vs veh, BCL10 / RFU, UHRF1BP1L / Fold change vs veh, UHRF1BP1L / RFU, BET1 / Fold change vs veh, BET1 / RFU, CNOT2 / Fold change vs veh, CNOT2 / RFU, ZNF268 / Fold change vs veh, ZNF268 / Fold change vs veh, ZNF507 / RFU, DGCR2 / Fold change vs veh, DGCR2 / RFU, WDSUB1 / Fold change vs veh, WDSUB1 / Fold change vs veh, HSP90B1 /// MIR3652 / RFU, ADSS / Fold change vs veh, ADSS / RFU, GK / Fold change vs veh, GK / RFU, ZNF148 / Fold change vs veh, ZNF148 / RFU, TAF9 / Fold change vs veh, TAF9 / RFU, SLC1A5 / Fold change vs veh, SLC1A5 / RFU, SLMO2 / Fold change vs veh, SLMO2 / RFU, ABCC4 / Fold change vs veh, ABCC4 / RFU, LOC101060439 /// RAP1B / Fold change vs veh, LOC101060439 /// RAP1B / RFU, RFX7 / Fold change vs veh, RFX7 / RFU, GTPBP10 / Fold change vs veh, GTPBP10 / RFU, CNEP1R1 / Fold change vs veh, CNEP1R1 / RFU, BIVM-ERCC5 /// ERCC5 / Fold change vs veh, BIVM-ERCC5 /// ERCC5 / RFU, ILF3 / Fold change vs veh, ILF3 / RFU 11762660_at / Fold change /veh 11762660_at / RFU VCAN (11757783_s_at) / Fold change /veh VCAN (11757783_s_at) / RFU DDX43 (11728927_at) / Fold change /veh DDX43 (11728927_at) / RFU KRT8 (11758188_x_at) / Fold change /veh KRT8 (11758188_x_at) / RFU NKD1 (11759106_at) / Fold change /veh NKD1 (11759106_at) / RFU SRD5A1 (11742802_a_at) / Fold change /veh SRD5A1 (11742802_a_at) / RFU TPSAB1 /// TPSB2 (11721975_s_at) / Fold change /veh TPSAB1 /// TPSB2 (11721975_s_at) / RFU GSTM3 (11746129_a_at) / Fold change /veh GSTM3 (11746129_a_at) / RFU IL23R (11737362_x_at) / Fold change /veh IL23R (11737362_x_at) / RFU TMEM51 (11727254_a_at) / Fold change /veh TMEM51 (11727254_a_at) / RFU PIWIL2 (11732686_x_at) / Fold change /veh PIWIL2 (11732686_x_at) / RFU ORM1 (11744905_x_at) / Fold change /veh ORM1 (11744905_x_at) / RFU CCDC152 (11743942_at) / Fold change /veh CCDC152 (11743942_at) / RFU ECM1 (11717891_a_at) / Fold change /veh ECM1 (11717891_a_at) / RFU IL23R (11748794_a_at) / Fold change /veh IL23R (11748794_a_at) / RFU TNFAIP8L3 (11732012_x_at) / Fold change /veh TNFAIP8L3 (11732012_x_at) / RFU MBOAT4 (11741988_at) / Fold change /veh MBOAT4 (11741988_at) / RFU 11764193_at / Fold change /veh 11764193_at / RFU TMEM53 (11763286_at) / Fold change /veh TMEM53 (11763286_at) / RFU MAGEB2 (11727129_at) / Fold change /veh MAGEB2 (11727129_at) / RFU TMEM200A (11744735_a_at) / Fold change /veh TMEM200A (11744735_a_at) / RFU CCDC152 (11751479_a_at) / Fold change /veh CCDC152 (11751479_a_at) / RFU FAM211A (11726209_a_at) / Fold change /veh FAM211A (11726209_a_at) / RFU RGS16 (11746705_a_at) / Fold change /veh RGS16 (11746705_a_at) / RFU VCAN (11755009_s_at) / Fold change /veh VCAN (11755009_s_at) / RFU RHOB (11743442_s_at) / Fold change /veh RHOB (11743442_s_at) / RFU RGS16 (11720943_a_at) / Fold change /veh RGS16 (11720943_a_at) / RFU RGS16 (11720944_at) / Fold change /veh RGS16 (11720944_at) / RFU, VPS4B / Fold change vs veh, VPS4B / RFU, CREB1 / Fold change vs veh, CREB1 / RFU, DNAJC13 / Fold change vs veh, DNAJC13 / RFU, GNAQ / Fold change vs veh, GNAQ / RFU, CDK5R1 / Fold change vs veh, CDK5R1 / RFU, ZRANB3 / Fold change vs veh, ZRANB3 / RFU, CUL4A / Fold change vs veh, CUL4A / RFU, CCNY / Fold change vs veh, CCNY / RFU, UFL1 / Fold change vs veh, UFL1 / RFU, COG3 / Fold change vs veh, COG3 / RFU, DIAPH2 / Fold change vs veh, DIAPH2 / RFU, SKA2 / Fold change vs veh, SKA2 / RFU, AFF3 / Fold change vs veh, AFF3 / RFU, LMF1 / Fold change vs veh, LMF1 / RFU, IPO11 / Fold change vs veh, IPO11 / RFU, DFFB / Fold change vs veh, DFFB / RFU, FOXP1 / Fold change vs veh, FOXP1 / RFU, CARD8 / Fold change vs veh, CARD8 / RFU, STRN3 / Fold change vs veh, STRN3 / RFU, ADK / Fold change vs veh, ADK / RFU, RASSF2 / Fold change vs veh, RASSF2 / RFU, WIPF1 / Fold change vs veh, WIPF1 / RFU, LARP1B / Fold change vs veh, LARP1B / RFU, RASA1 / Fold change vs veh, RASA1 / RFU, RB1 / Fold change vs veh, RB1 / RFU, PPFIA1 / Fold change vs veh, PPFIA1 / RFU, MAT2A / Fold change vs veh, MAT2A / RFU, CCT5 / Fold change vs veh, CCT5 / RFU, WDR92 / Fold change vs veh, WDR92 / RFU, CUX1 / Fold change vs veh, CUX1 / RFU, TTC7A / Fold change vs veh, TTC7A / RFU, TMEM135 / Fold change vs veh, TMEM135 / RFU, DEPTOR / Fold change vs veh, DEPTOR / RFU, CPM / Fold change vs veh, CPM / RFU, DNAJB6 / Fold change vs veh, DNAJB6 / RFU, CACNA2D3 / Fold change vs veh, CACNA2D3 / RFU, DTX4 / Fold change vs veh, DTX4 / RFU, TFCP2 / Fold change vs veh, TFCP2 / RFU, GMCL1 /// GMCL1P1 / Fold change vs veh, GMCL1 /// GMCL1P1 / RFU, AEBP2 / Fold change vs veh, AEBP2 / RFU, SNHG1 /// SNORD22 /// SNORD25 /// SNORD26 /// SNORD27 /// SNORD28 /// SNORD29 /// SNORD31 / Fold change vs veh, SNHG1 /// SNORD22 /// SNORD25 /// SNORD26 /// SNORD27 /// SNORD28 /// SNORD29 /// SNORD31 / Fold change (Aza/veh), C12orf56 (ProbeSet 11735607_a_at) / Fold change (ACY-1035/veh), C12orf56 (ProbeSet 11735607_a_at) / Fold change (Aza/veh), FGFR1OP (ProbeSet 11751329_s_at) / Fold change (ACY-1035/veh), FGFR1OP (ProbeSet 11751329_s_at) / Fold change (Aza/veh), VPS36 (ProbeSet 11739960_a_at) / Fold change (ACY-1035/veh), VPS36 (ProbeSet 11739960_a_at) / RFU SYPL1 (11715823_x_at) / Fold change /veh SYPL1 (11715823_x_at) / RFU IGFBP7 (11715501_s_at) / Fold change /veh IGFBP7 (11715501_s_at) / RFU REEP3 (11722064_at) / Fold change /veh REEP3 (11722064_at) / RFU IGLL1 (11728026_x_at) / Fold change /veh IGLL1 (11728026_x_at): dose or concentration left out as unconfirmed
Conditions: MV-4-11 cells, 48 hours

## Nc1ccc(-c2cccs2)cc1NC(=O)c1ccc2c(c1)cc(C1CC1)n2CCN1CCOCC1 [ACY-1035]
  RFU CMKLR1 (11741424_a_at): 17.99 RFU
